Measured values as given in patent US7407940B2, “Antimicrobial hexapeptides” (Helix BioMedix Inc., priority 2005, dated 2008).
In brackets after ≈: the same amount, converted by molar mass. Like-named read-outs stand apart in the source and are kept apart here. Where a SMILES comes first, the peptide text is derived from it. Where no end group is shown, it is not given here. The star is where a group is joined. Pentadecanoyl = CCCCCCCCCCCCCCC(=O)*; Oleoyl = CCCCCCCC/C=C\CCCCCCCC(=O)*; Stearoyl = CCCCCCCCCCCCCCCCCC(=O)*; Palmitoyl = CCCCCCCCCCCCCCCC(=O)*; Tridecanoyl = CCCCCCCCCCCCC(=O)*; Lauroyl = CCCCCCCCCCCC(=O)*

Key:
Candida albicans = type: cell-based
Description: (§1) MICs (minimal inhibitory concentrations) were determined for the hexapeptides of interest using a slightly modified version of the NCCLS (National Committee for Clinical Laboratory Standards) broth microdilution method as described previously (Steinberg et al., AAC 41: 1738, 1997). Briefly, antimicrobial agents were prepared as 10× concentrates in the most appropriate solvent. For the hexapeptide, 0.01% acetic acid containing 0.2% bovine serum albumin as a carrier protein was used. Inocula were prepared by resuspending colonies from a BAP (please spell out this term) in medium and adjusting the suspension to match that of a 0.5 McFarland standard. The suspension was diluted into fresh medium (as recommended by NCCLS for the organism) to give 2×10^5 to 7×10^5 CFU/ml for bacteria or 2×10^3 to 7×10^3 CFU/ml for Candida. After dispensing 100 μl aliquots of the microbial suspension into each well of a 96-well polypropylene microtiter plate, 11 μl of test compound was added. The MIC was defined as the lowest concentration of drug which prevented visible turbidity after 16 to 20 hours (bacteria) or 46 to 50 hours (Candida) at 35° C.

[1] = system: azole resistant strains of C. albicans; type: cell-based; design: MIC-SEQ ID NO: 55 + azole, peptide part / MIC-SEQ ID NO: 55 + azole, azole part: unit not given beside the values; details: in combination with SEQ ID NO: 55
Description: (§2) The fractional inhibitory concentration (FIC) index was used to determine the synergy between antimicrobial agents. Peptide MICs against test microorganisms were determined three times on separate occasions. […]
All strains are azole resistant clinical isolates from Prof. Ted White (Seattle Biotechnology Research Institute, Seattle)

Staphylococcus aureus = type: cell-based
Description: as §1

[2] = system: Trychophyton mentagrophytes; experiment: MIC100 against dermatophyte Trychophyton mentagrophytes; type: cell-based; details: T. mentagrophytes; at 10 days
Description: (§3) In order to compare the activity of various antimicrobial peptides, including hexapeptide SEQ ID NO:1 (P0666), MIC were determined against the dermatophytes Trychophyton rubrum and Trychophyton mentagrophytes. The concentration of samples investigated were: 2000, 1000, 500, 250 and 125 μg/ml, respectively. The medium used was modified Sabouraud's media without agar. For a 100 mL of modified Sabouraud medium: 3 g of Sabouraud's dextrose broth (Difco) was mixed into 100 mL of deionized water. The pH was adjusted to 7.0 with 0.1 N NaOH. The solution was autoclaved for thirty minutes. 940 μL of medium was poured into sterile 20 mL test tubes with plastic caps and was allowed to cool.
(§4) 50 μL of […] was added to each 20 mL test tube to make the required concentration. A control tube was composed of 50 μL of saline without sample. For the MIC experiments,
(§5) 10 μL of organism suspended in saline was added to the each 20 mL test tube and vortexed slightly. Each of the test tubes was covered in parafilm and maintained on a shaker at 27° C. at a speed of approximately 100 rpm.
(§6) The growth/inhibition of the organism was observed on a daily basis. […] The Minimum Inhibition Concentration (MIC100) for compounds F1 to F10 against fungus Trychophyton rubrum and Trychophyton mentagrophytes at 10 days.

Trychophyton rubrum = experiment: MIC100 against dermatophyte Trychophyton rubrum; type: cell-based; details: T. rubrum; at 10 days
Description: as §3, §4, §5, §6

Pseudomonas aeruginosa = type: cell-based; design: MIC, lipid length SAR: unit not given here; details: for MIC, lipid length SAR: P.aeruginosa; for MIC: agent alone
Description: as §1

MRSA = experiment: Kill curve in 10% sheep serum-phosphate buffer against MRSA; type: cell-based, S. aureus; design: MRSA count in kill curve: unit not given here
P. acnes = experiment: Activity against extended panel of P. acnes; type: cell-based; design: unit not given here
Text: A very promising application for short bioactive peptides is for dermatological indications such as acne.

[3] = system: Salmonella typhimurium 14028S; experiment: MIC, broth microdilution, S. typhimurium; type: cell-based; design: unit not given here; details: S.typhimurium
Description: as §1

P. aeruginosa = type: cell-based; details: combined with SEQ ID NO: 55
Description: as §2

In the case of Clc1ccccc1C(c1ccccc1)(c1ccccc1)n1ccnc1 [Clotrimazole, clotrimazole, reference compound], the MIC (Candida albicans; T.W. Candida #184, azole resistant clinical isolate) is reported as > 256 µg/mL, the MIC (Candida albicans; T.W. Candida #185 (CDR1,2), azole resistant clinical isolate) is reported as 128 µg/mL (≈ 371 µM) and the MIC (Candida albicans; T.W. Candida #186 (CDR1,2), azole resistant clinical isolate) is reported as 32 µg/mL (≈ 92.8 µM). For the same compound, the MIC (Candida albicans; T.W. Candida #187 (CDR1,2), azole resistant clinical isolate) was > 256 µg/mL, the MIC (Candida albicans; T.W. Candida #192 (CDR1,2), azole resistant clinical isolate) was 128 µg/mL (≈ 371 µM) and the MIC (Candida albicans; T.W. Candida #193, azole resistant clinical isolate) was 0.5 µg/mL (≈ 1.45 µM). For the same compound, the MIC (Candida albicans; T.W. Candida #194, azole resistant clinical isolate) was > 256 µg/mL, the MIC (Candida albicans; T.W. Candida #195, azole resistant clinical isolate) was 256 µg/mL (≈ 742 µM) and the MIC (Candida albicans; T.W. Candida #196 (CDR1,2), azole resistant clinical isolate) was 64 µg/mL (≈ 186 µM). For the same compound, the MIC (Candida albicans; T.W. Candida #197, azole resistant clinical isolate) was > 256 µg/mL, the MIC (Candida albicans; T.W. Candida #198, azole resistant clinical isolate) was > 256 µg/mL and the MIC (Candida albicans; T.W. Candida #199 (CDR1,2), azole resistant clinical isolate) was 64 µg/mL (≈ 186 µM). The “MIC-SEQ ID NO: 55 + azole, azole part” value ([1]; C. albicans #185) was 12.5, the “MIC-SEQ ID NO: 55 + azole, azole part” value ([1]; C. albicans #186) was 12.5 and the “MIC-SEQ ID NO: 55 + azole, azole part” value ([1]; C. albicans #187) was 25. For the same compound, the “MIC-SEQ ID NO: 55 + azole, azole part” value ([1]; C. albicans #192) was 50, the “MIC-SEQ ID NO: 55 + azole, azole part” value ([1]; C. albicans #196) was 50 and the “MIC-SEQ ID NO: 55 + azole, azole part” value ([1]; C. albicans #199) was 25.
CCCCCCCCCCCC(=O)N[C@@H](CCCCN)C(=O)N[C@@H](Cc1ccccc1)C(=O)N[C@@H](CCCCN)C(=O)N[C@@H](Cc1c[nH]c2ccccc12)C(=O)N1CCC[C@H]1C(=O)N[C@@H](Cc1c[nH]c2ccccc12)C(N)=O [compound 72] (Lauroyl-KFKWPW-NH2) was tested, and the “Minimal Inhibitory Concentrations (Mics)” value (Staphylococcus aureus) was 4-8 Mg/Ml.
CCCCCCCCCCCCCCC(=O)N[C@@H](CCCCN)C(=O)N[C@@H](Cc1ccccc1)C(=O)N[C@@H](CCCCN)C(=O)N[C@@H](Cc1c[nH]c2ccccc12)C(=O)N1CCC[C@H]1C(=O)N[C@@H](Cc1c[nH]c2ccccc12)C(N)=O [compound 78] (Pentadecanoyl-KFKWPW-NH2) was tested, and the “Minimal Inhibitory Concentrations (Mics)” value (Staphylococcus aureus) was 32-64 Mg/Ml.
In the case of FAKLLAKALKKLL-NH2 [SEQ ID NO: 87], the MIC100 [2] is reported as 500 µg/mL and the MIC100 (Trychophyton rubrum) is reported as 500 µg/mL.
FAKLLAKLAKKLL-NH2 [SEQ ID NO: 89] showed an MIC100 [2] of 500 µg/mL and an MIC100 (Trychophyton rubrum) of 500 µg/mL.
FALKALKKLKKALKKAL-NH2 [SEQ ID NO: 86] gave an MIC100 [2] of 250 µg/mL and an MIC100 (Trychophyton rubrum) of 1000 µg/mL.
In the case of KFKWPW-NH2 [SEQ ID NO: 1, KFKWPW-NH2], the MIC100 [2] is reported as 250 µg/mL, the MIC100 (Trychophyton rubrum) is reported as 250 µg/mL and the “MIC, lipid length SAR” value (Pseudomonas aeruginosa) is reported as 32. For the same compound, the “MRSA count in kill curve” value (MRSA; buffer, 2 mg/ml, 30 min) was 99200, the “MRSA count in kill curve” value (MRSA; buffer, 2 mg/ml, 1 hour) was 62800 and the “MRSA count in kill curve” value (MRSA; buffer, 2 mg/ml, 2 hours) was 99200. For the same compound, the “MRSA count in kill curve” value (MRSA; buffer, 2 mg/ml, 3 hours) was 99200, the “MRSA count in kill curve” value (MRSA; buffer, 2 mg/ml, 4 hours) was 99200 and the “MRSA count in kill curve” value (MRSA; buffer, 2 mg/ml, 5 hours) was 99200. For the same compound, the “MRSA count in kill curve” value (MRSA; serum, 1 mg/ml, 30 min) was 102300, the “MRSA count in kill curve” value (MRSA; serum, 1 mg/ml, 1 hour) was 99600 and the “MRSA count in kill curve” value (MRSA; serum, 1 mg/ml, 2 hours) was 15110. The “MRSA count in kill curve” value (MRSA; serum, 1 mg/ml, 3 hours) was 12080, the “MRSA count in kill curve” value (MRSA; serum, 1 mg/ml, 4 hours) was 5020 and the “MRSA count in kill curve” value (MRSA; serum, 1 mg/ml, 5 hours) was 2570. For the same compound, the “MRSA count in kill curve” value (MRSA; serum, 2 mg/ml, 30 min) was 9800, the “MRSA count in kill curve” value (MRSA; serum, 2 mg/ml, 1 hour) was 3200 and the “MRSA count in kill curve” value (MRSA; serum, 2 mg/ml, 2 hours) was 630. The “MRSA count in kill curve” value (MRSA; serum, 2 mg/ml, 3 hours) was 250, the “MRSA count in kill curve” value (MRSA; serum, 2 mg/ml, 4 hours) was 70 and the “MRSA count in kill curve” value (MRSA; serum, 2 mg/ml, 5 hours) was 50.
For “Lau-KFKWPW-NH2 (Lauroyl-KFKWPW-NH2; SMILES CCCCCCCCCCCC(=O)N[C@@H](CCCCN)C(=O)N[C@@H](Cc1ccccc1)C(=O)N[C@@H](CCCCN)C(=O)N[C@@H](Cc1c[nH]c2ccccc12)C(=O)N1CCC[C@H]1C(=O)N[C@@H](Cc1c[nH]c2ccccc12)C(N)=O) [SEQ ID NO: 72]”, the “MIC, lipid length SAR” value (Pseudomonas aeruginosa) was 32, the “Activity (MIC) against P. acnes” value (P. acnes; ATCC 6922) was 1 and the “Activity (MIC) against P. acnes” value (P. acnes; ATCC 6923) was 1. For the same compound, the “Activity (MIC) against P. acnes” value (P. acnes; ATCC 25746) was 1, the “Activity (MIC) against P. acnes” value (P. acnes; ATCC 29399) was 2 and the “Activity (MIC) against P. acnes” value (P. acnes; ATCC 33179) was 1. The “Activity (MIC) against P. acnes” value (P. acnes; ATCC 51277) was 1 and the “MIC, lipid length SAR” value [3] was 32.
For “OIe-KFKWPW-NH2 (Oleoyl-KFKWPW-NH2; SMILES CCCCCCCC/C=C\CCCCCCCC(=O)N[C@@H](CCCCN)C(=O)N[C@@H](Cc1ccccc1)C(=O)N[C@@H](CCCCN)C(=O)N[C@@H](Cc1c[nH]c2ccccc12)C(=O)N1CCC[C@H]1C(=O)N[C@@H](Cc1c[nH]c2ccccc12)C(N)=O) [SEQ ID NO: 75]”, the “MIC, lipid length SAR” value (Pseudomonas aeruginosa) was >128 and the “MIC, lipid length SAR” value [3] was >128.
In the case of “Pal-KFKWPW-NH2 (Palmitoyl-KFKWPW-NH2; SMILES CCCCCCCCCCCCCCCC(=O)N[C@@H](CCCCN)C(=O)N[C@@H](Cc1ccccc1)C(=O)N[C@@H](CCCCN)C(=O)N[C@@H](Cc1c[nH]c2ccccc12)C(=O)N1CCC[C@H]1C(=O)N[C@@H](Cc1c[nH]c2ccccc12)C(N)=O) [SEQ ID NO: 73]”, the “MIC, lipid length SAR” value (Pseudomonas aeruginosa) is reported as >128 and the “MIC, lipid length SAR” value [3] is reported as >128.
With “Ste-KFKWPW-NH2 (Stearoyl-KFKWPW-NH2; SMILES CCCCCCCCCCCCCCCCCC(=O)N[C@@H](CCCCN)C(=O)N[C@@H](Cc1ccccc1)C(=O)N[C@@H](CCCCN)C(=O)N[C@@H](Cc1c[nH]c2ccccc12)C(=O)N1CCC[C@H]1C(=O)N[C@@H](Cc1c[nH]c2ccccc12)C(N)=O) [SEQ ID NO: 74]” the “MIC, lipid length SAR” value (Pseudomonas aeruginosa) was >128 and the “MIC, lipid length SAR” value [3] was >128.
With “Tri-KFKWPW-NH2 (Tridecanoyl-KFKWPW-NH2; SMILES CCCCCCCCCCCCC(=O)N[C@@H](CCCCN)C(=O)N[C@@H](Cc1ccccc1)C(=O)N[C@@H](CCCCN)C(=O)N[C@@H](Cc1c[nH]c2ccccc12)C(=O)N1CCC[C@H]1C(=O)N[C@@H](Cc1c[nH]c2ccccc12)C(N)=O) [SEQ ID NO: 80]” the “MIC, lipid length SAR” value (Pseudomonas aeruginosa) was 32 and the “MIC, lipid length SAR” value [3] was 32-64.
Compound polymyxin B [reference compound] has an MIC (Pseudomonas aeruginosa; P. aeruginosa 100609, tobromycin resistant) of 0.5 µg/mL, an MIC (Pseudomonas aeruginosa; P. aeruginosa H187, wide type) of 0.5 µg/mL and an MIC (Pseudomonas aeruginosa; P. aeruginosa H401, mucoid clinical isolate) of 0.25 µg/mL. It also gave an MIC (Pseudomonas aeruginosa; P. aeruginosa M917, multi-drug resistant clinical isolate) of 1 µg/mL, an MIC-PXB-combined (P. aeruginosa; P. aeruginosa 100609) of 0.125 µg/mL and an MIC-PXB-combined (P. aeruginosa; P. aeruginosa H187) of 0.06 µg/mL. The MIC-PXB-combined (P. aeruginosa; P. aeruginosa H401) was 0.0625 µg/mL and the MIC-PXB-combined (P. aeruginosa; P. aeruginosa M917) was 0.25 µg/mL.
